Reference: patent US8716297B2, “Chemical entities to be used for Wee1 inhibition for the treatment of cancer” (AbbVie Inc., priority 2011, dated 2014)

The molecules below were run against T1, GST-tagged-Wee1 kinase (Homo sapiens, UniProt P30291) (assay: Wee1 time-resolved fluorescence equilibrium binding assay (displacement of Oregon Green-labeled ATP-competitive probe)). Conditions: TR-FRET probe displacement; 2 nM GST-Wee1, 300 nM probe, 1 hour incubation; read-out: Wee-1 binding (Ki nM).
T1 construct: purchased Carnabio 05-177
Description: Wee1 kinase was assayed using a time-resolved fluorescence equilibrium binding assay monitoring displacement of a rapidly reversible Oregon Green-labeled ATP-competitive kinase probe (N-(2-(2-(2-(4-(4-(5-chloro-4-(2-(1-hydroxycyclobutyl)thiazol-5-yl)-1H-pyrrolo[2,3-b]pyridin-2-yl)phenyl)piperazin-1-yl)ethoxy)ethoxy)ethyl)-2′,7′-difluoro-3′,6′-dihydroxy-3-oxo-3H-spiro[isobenzofuran-1,9′-xanthene]-5-carboxamide) by competitive Wee1 inhibitors.

T1 sequence (P30291 whole entry): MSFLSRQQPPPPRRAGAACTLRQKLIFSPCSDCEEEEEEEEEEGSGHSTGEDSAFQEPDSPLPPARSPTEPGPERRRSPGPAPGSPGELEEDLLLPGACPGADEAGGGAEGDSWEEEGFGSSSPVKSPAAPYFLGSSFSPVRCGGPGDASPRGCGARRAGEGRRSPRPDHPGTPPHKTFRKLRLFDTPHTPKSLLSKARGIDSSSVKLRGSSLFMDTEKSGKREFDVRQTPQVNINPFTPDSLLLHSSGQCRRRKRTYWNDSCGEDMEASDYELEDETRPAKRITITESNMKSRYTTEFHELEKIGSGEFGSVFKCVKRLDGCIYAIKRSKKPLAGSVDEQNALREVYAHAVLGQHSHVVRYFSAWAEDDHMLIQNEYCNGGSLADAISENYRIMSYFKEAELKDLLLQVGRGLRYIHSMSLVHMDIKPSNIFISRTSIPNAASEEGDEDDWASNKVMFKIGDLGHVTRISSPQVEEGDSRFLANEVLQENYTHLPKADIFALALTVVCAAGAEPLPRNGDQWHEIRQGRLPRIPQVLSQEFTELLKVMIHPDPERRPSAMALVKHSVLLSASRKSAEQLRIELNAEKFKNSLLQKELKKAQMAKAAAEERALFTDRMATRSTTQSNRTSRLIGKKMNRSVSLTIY

Row | Ki | SMILES
1 | 15 nM | C=CCN1c2ncccc2-c2nc(Nc3ccc(OCCN(CC)CC)cc3)ncc2S1(=O)=O [Example 39, 6-allyl-N-{4-[2-(diethylamino)ethoxy]phenyl}-6H-pyrido[2,3-c]pyrimido[4,5-e][1,2]thiazin-2-amine 5,5-dioxide]
2 | 5 nM | C=CCN1c2ncccc2-c2nc(Nc3ccc(N4CCN(C)CC4)cc3)ncc2S1(=O)=O [Example 40, 6-allyl-N-[4-(4-methylpiperazin-1-yl)phenyl]-6H-pyrido[2,3-c]pyrimido[4,5-e][1,2]thiazin-2-amine 5,5-dioxide]
3 | 2370 nM | C=CCN1c2ncccc2-c2nc(Nc3ccc(N4CCN(C)CC4)c(Cl)c3)ncc2S1(=O)=O [Example 41, 6-allyl-N-[3-chloro-4-(4-methylpiperazin-1-yl)phenyl]-6H-pyrido[2,3-c]pyrimido[4,5-e][1,2]thiazin-2-amine 5,5-dioxide]
4 | 2 nM | C=CCN1c2ncccc2-c2nc(Nc3ccc(N4CCNCC4)c(C)c3)ncc2S1(=O)=O [Example 42, 6-allyl-N-[3-methyl-4-(piperazin-1-yl)phenyl]-6H-pyrido[2,3-c]pyrimido[4,5-e][1,2]thiazin-2-amine 5,5-dioxide]
5 | 56 nM | C=CCN1c2ncccc2-c2nc(Nc3ccc(C(=O)N4CCN(C)CC4)cc3)ncc2S1(=O)=O [Example 43, {4-[(6-allyl-5,5-dioxido-6H-pyrido[2,3-c]pyrimido[4,5-e][1,2]thiazin-2-yl)amino]phenyl}(4-methylpiperazin-1-yl)methanone]
6 | 487 nM | C=CCN1c2ncccc2-c2nc(Nc3ccc(N4CCN(C)CC4)cc3C)ncc2S1(=O)=O [Example 44, 6-allyl-N-[2-methyl-4-(4-methylpiperazin-1-yl)phenyl]-6H-pyrido[2,3-c]pyrimido[4,5-e][1,2]thiazin-2-amine 5,5-dioxide]
7 | 3 nM | C=CCN1c2ncccc2-c2nc(Nc3ccc(C4CCNC4)cc3)ncc2S1(=O)=O (stereo not drawn) [Example 45, 6-allyl-N-[4-(pyrrolidin-3-yl)phenyl]-6H-pyrido[2,3-c]pyrimido[4,5-e][1,2]thiazin-2-amine 5,5-dioxide]
8 | 2 nM | C=CCN1c2ncccc2-c2nc(Nc3ccc4c(c3)CCNC4)ncc2S1(=O)=O [Example 46, 6-allyl-N-(1,2,3,4-tetrahydroisoquinolin-6-yl)-6H-pyrido[2,3-c]pyrimido[4,5-e][1,2]thiazin-2-amine 5,5-dioxide]
9 | 1.3 nM | C=CCN1c2ncccc2-c2nc(Nc3ccc4c(c3)CN(C)CC43CC3)ncc2S1(=O)=O [Example 47, 6-allyl-N-(2′-methyl-2′,3′-dihydro-1′H-spiro[cyclopropane-1,4′-isoquinolin]-7′-yl)-6H-pyrido[2,3-c]pyrimido[4,5-e][1,2]thiazin-2-amine 5,5-dioxide]
10 | 2 nM | C=CCN1c2ncccc2-c2nc(Nc3ccc(N4CCN5CCCC5C4)cc3)ncc2S1(=O)=O (stereo not drawn) [Example 48, 6-allyl-N-[4-(hexahydropyrrolo[1,2-a]pyrazin-2(1H)-yl)phenyl]-6H-pyrido[2,3-c]pyrimido[4,5-e][1,2]thiazin-2-amine 5,5-dioxide]
11 | 45 nM | C=CCN1c2ncccc2-c2nc(Nc3ccc4c(c3)N(C)CCC4)ncc2S1(=O)=O [Example 49, 6-allyl-N-(1-methyl-1,2,3,4-tetrahydroquinolin-7-yl)-6H-pyrido[2,3-c]pyrimido[4,5-e][1,2]thiazin-2-amine 5,5-dioxide]
12 | 5 nM | C=CCN1c2ncccc2-c2nc(Nc3ccc(N4CCN(C)CC4)c(C)c3)ncc2S1(=O)=O [Example 50, 6-allyl-N-[3-methyl-4-(4-methylpiperazin-1-yl)phenyl]-6H-pyrido[2,3-c]pyrimido[4,5-e][1,2]thiazin-2-amine 5,5-dioxide]
13 | 14 nM | C=CCN1c2ncccc2-c2nc(Nc3ccc(N4CCNCC4)c(C(F)(F)F)c3)ncc2S1(=O)=O [Example 51, 6-allyl-N-[4-(piperazin-1-yl)-3-(trifluoromethyl)phenyl]-6H-pyrido[2,3-c]pyrimido[4,5-e][1,2]thiazin-2-amine 5,5-dioxide]
14 | 12 nM | C=CCN1c2ncccc2-c2nc(Nc3ccc(N4CCOCC4)cc3)ncc2S1(=O)=O [Example 52, 6-allyl-N-[4-(morpholin-4-yl)phenyl]-6H-pyrido[2,3-c]pyrimido[4,5-e][1,2]thiazin-2-amine 5,5-dioxide]
15 | 1.1 nM | C=CCN1c2ncccc2-c2nc(Nc3ccc(N4CCCN(C)CC4)c(C)c3)ncc2S1(=O)=O [Example 53, 6-allyl-N-[3-methyl-4-(4-methyl-1,4-diazepan-1-yl)phenyl]-6H-pyrido[2,3-c]pyrimido[4,5-e][1,2]thiazin-2-amine 5,5-dioxide]
16 | 1.2 nM | C=CCN1c2ncccc2-c2nc(Nc3ccc4c(c3)CNCC43CC3)ncc2S1(=O)=O [Example 54, 6-allyl-N-(2′,3′-dihydro-1′H-spiro[cyclopropane-1,4′-isoquinolin]-7′-yl)-6H-pyrido[2,3-c]pyrimido[4,5-e][1,2]thiazin-2-amine 5,5-dioxide]
17 | 8 nM | CN1CCN(c2ccc(Nc3ncc4c(n3)-c3sccc3N(C)S4(=O)=O)cc2)CC1 [Example 55, 6-methyl-N-[4-(4-methylpiperazin-1-yl)phenyl]-6H-pyrimido[4,5-e]thieno[3,2-c][1,2]thiazin-2-amine 5,5-dioxide]
18 | 9 nM | CN1CCN(c2ccc(Nc3ncc4c(n3)-c3ccccc3N(C)S4(=O)=O)cc2)CC1 [Example 56, 6-methyl-N-[4-(4-methylpiperazin-1-yl)phenyl]-6H-pyrimido[5,4-c][2,1]benzothiazin-2-amine 5,5-dioxide]
19 | 12 nM | CN1c2ccccc2-c2nc(Nc3ccc(N4CCOCC4)cc3)ncc2S1(=O)=O [Example 57, 6-methyl-N-[4-(morpholin-4-yl)phenyl]-6H-pyrimido[5,4-c][2,1]benzothiazin-2-amine 5,5-dioxide]
20 | 11 nM | CN1c2ccccc2-c2nc(Nc3ccc(CN4CCCC4)cc3)ncc2S1(=O)=O [Example 58, 6-methyl-N-[4-(pyrrolidin-1-ylmethyl)phenyl]-6H-pyrimido[5,4-c][2,1]benzothiazin-2-amine 5,5-dioxide]
21 | 141 nM | C=CCN1c2c(C(=O)O)cccc2-c2nc(Nc3ccc(N4CCN(C)CC4)cc3)ncc2S1(=O)=O [Example 59, 6-allyl-2-{[4-(4-methylpiperazin-1-yl)phenyl]amino}-6H-pyrimido[5,4-c][2,1]benzothiazine-7-carboxylic acid 5,5-dioxide]
22 | 9 nM | C=CCN1c2c(C(=O)OC)cccc2-c2nc(Nc3ccc(N4CCN(C)CC4)cc3)ncc2S1(=O)=O [Example 60, methyl 6-allyl-2-{[4-(4-methylpiperazin-1-yl)phenyl]amino}-6H-pyrimido[5,4-c][2,1]benzothiazine-7-carboxylate 5,5-dioxide]
23 | 11 nM | C=CCN1c2c(C(=O)NC)cccc2-c2nc(Nc3ccc(N4CCN(C)CC4)cc3)ncc2S1(=O)=O [Example 61, 6-allyl-N-methyl-2-{[4-(4-methylpiperazin-1-yl)phenyl]amino}-6H-pyrimido[5,4-c][2,1]benzothiazine-7-carboxamide 5,5-dioxide]
24 | 37 nM | C=CCN1c2c(C(=O)NCCO)cccc2-c2nc(Nc3ccc(N4CCN(C)CC4)cc3)ncc2S1(=O)=O [Example 62, 6-allyl-N-(2-hydroxyethyl)-2-{[4-(4-methylpiperazin-1-yl)phenyl]amino}-6H-pyrimido[5,4-c][2,1]benzothiazine-7-carboxamide 5,5-dioxide]
